Reference: ChEMBL document CHEMBL6121036, “Evaluation of Cereblon-Directing Warheads for the Development of Orally Bioavailable PROTACs” (J Med Chem, 2025)
Converted amounts (≈) assume the structure as drawn. Blank lines part the entries; values can stand above or below the molecule they belong to. The source made the active and inactive calls. The rule behind the calls is not given here.

Columns and labels:
[1] = molecular target: T1, Protein cereblon/Bromodomain-containing protein 4/DNA damage-binding protein 1 (Homo sapiens) (UniProt O60885+Q96SW2+Q16531); assay: Binding affinity to his-tagged CRBN/DDB1/GST-tagged BRD4 (49 to 170 residues)(unknown origin) assessed as ternary complex formation by measuring AUC incubated for 1 hr by luminescence based Alphascreen assay; assay type: protein assay
HEK293 = assay: Cytotoxicity against HEK293 cells expressing LgBiT fused HiBiT-BRD2 measured after 24 hrs by cell titer-glo assay; assay type: toxicity, cell-based; details: human, hek293, 24 h
[2] = Half life in mouse at 50 mg/kg, ip; assay type: ADME, organism-based; details: in vivo
[3] = molecular target: T2, Protein cereblon/Bromodomain-containing protein 4 (Homo sapiens, UniProt O60885+Q96SW2); assay: PROTAC activity at CRBN/Hibit-tagged BRD4 (unknown origin) expressed in HEK293 cells co-expressing LgBiT assessed as degradation of BRD4 incubated for 24 hrs by […] glo-max assay relative to control; assay type: cell-based
[4] = molecular target: T2, Protein cereblon/Bromodomain-containing protein 4; assay: PROTAC activity at CRBN/Hibit-tagged BRD4 (unknown origin) expressed in HEK293 cells co-expressing LgBiT assessed as degradation of BRD4 incubated for 24 hrs by […] glo-max assay; assay type: cell-based
[5] = Kinetic aqueous solubility of the compound at pH 7.4; assay type: physicochemical; details: read-out: Kinetic_solubility
[6] = Metabolic stability in mouse liver microsomes assessed as half life; assay type: ADME, Microsome; details: liver microsomes
[7] = Effect on CCNF level in human MV4-11 cells assessed as fold change at 100 nM measured after 4 hrs; assay type: functional
[8] = molecular target: T3, Protein cereblon/Bromodomain-containing protein 2 (Homo sapiens) (UniProt P25440+Q96SW2); assay: PROTAC activity at CRBN/Hibit-tagged CRISPR BRD2 (unknown origin) expressed in HEK293 cells coexpressing LgBiT assessed as degradation of BRD2 by […] glo-max assay; assay type: cell-based
[9] = molecular target: T2, Protein cereblon/Bromodomain-containing protein 4; assay: PROTAC activity at CRBN/Hibit-tagged CRISPR BRD4 (unknown origin) expressed in HEK293 cells co-expressing LgBiT assessed as degradation of BRD4 by […] glo-max assay relative to control; assay type: cell-based
MV4-11 [10] = assay: Cytotoxicity against human MV4-11 cells assessed as reduction in cell viability incubated for 72 hrs by cell-titer glo assay; assay type: functional, cell-based; details: MV4-11, 72 h
[11] = molecular target: T3, Protein cereblon/Bromodomain-containing protein 2 (Homo sapiens); assay: PROTAC activity at CRBN/Hibit-tagged CRISPR BRD2 (unknown origin) expressed in HEK293 cells coexpressing LgBiT assessed as degradation of BRD2 by […] glo-max assay relative to control; assay type: cell-based
[12] = Stability in mouse plasma assessed as half life by UPLC-MS/MS analysis; assay type: ADME, cell-free
[13] = Permeability in MDCK-II cells incubated for 1 hr by UPLC/MS/UV analysis; assay type: ADME, cell-based, Canis lupus familiaris; details: dog, read-out: permeability
[14] = Effect on MYC level in human MV4-11 cells assessed as fold change at 100 nM measured after 4 hrs; assay type: functional
[15] = Effect on TP53 level in human MV4-11 cells assessed as fold change at 100 nM measured after 4 hrs; assay type: functional
[16] = molecular target: T2, Protein cereblon/Bromodomain-containing protein 4; assay: PROTAC activity at CRBN/Hibit-tagged CRISPR BRD4 (unknown origin) expressed in HEK293 cells co-expressing LgBiT assessed as degradation of BRD4 measured after 18 to 24 hrs by […] glo-max assay; assay type: cell-based; details: time 18-24 hrs
[17] = Effect on FYTTD1 level in human MV4-11 cells assessed as fold change at 100 nM measured after 4 hrs; assay type: functional
[18] = Effect on CDC42EP3 level in human MV4-11 cells assessed as fold change at 100 nM measured after 4 hrs; assay type: functional
[19] = Effect on NOP53 level in human MV4-11 cells assessed as fold change at 100 nM measured after 4 hrs; assay type: functional
[20] = molecular target: T1, Protein cereblon/Bromodomain-containing protein 4/DNA damage-binding protein 1 (Homo sapiens); assay: Binding affinity to his-tagged CRBN/DDB1/GST-tagged BRD4 (49 to 170 residues)(unknown origin) assessed as ternary complex formation (AUC) incubated for 1 hr by luminescence based Alphascreen assay; assay type: protein assay
[21] = Effect on ZFP36L2 level in human MV4-11 cells assessed as fold change at 100 nM measured after 4 hrs; assay type: functional
[22] = Effect on MCL1 level in human MV4-11 cells assessed as fold change at 100 nM measured after 4 hrs; assay type: functional
[23] = Effect on BRD3 level in human MV4-11 cells assessed as fold change at 100 nM measured after 4 hrs; assay type: functional
[24] = molecular target: Protein cereblon (Homo sapiens) (UniProt Q96SW2); assay: Binding affinity to CRBN (unknown origin)
[25] = Effect on NSA2 level in human MV4-11 cells assessed as fold change at 100 nM measured after 4 hrs; assay type: functional
[26] = Downregulation of BRD2 protein level in human MV4-11 cells at 100 nM incubated for 4 hrs relative to control; assay type: functional
[27] = molecular target: T2, Protein cereblon/Bromodomain-containing protein 4; assay: PROTAC activity at CRBN/Hibit-tagged BRD4 (unknown origin) expressed in HEK293 cells co-expressing LgBiT assessed as degradation rate incubated for 24 hrs by […] glo-max assay; assay type: cell-based
[28] = Effect on PLK1 level in human MV4-11 cells assessed as fold change at 100 nM measured after 4 hrs; assay type: functional
[29] = Downregulation of BRD3 protein level in human MV4-11 cells at 100 nM incubated for 4 hrs relative to control; assay type: functional
[30] = AUC last in female CD1 mouse at 10 mg/kg, po measured upto 24 hrs by LC-MS/MS analysis; assay type: ADME, organism-based; details: in vivo
[31] = Effect on RNF166 level in human MV4-11 cells assessed as fold change at 100 nM measured after 4 hrs; assay type: functional
[32] = Effect on PLAU level in human MV4-11 cells assessed as fold change at 100 nM measured after 4 hrs; assay type: functional
[33] = molecular target: T4, Protein cereblon/Bromodomain-containing protein 3 (Homo sapiens) (UniProt Q15059+Q96SW2); assay: PROTAC activity at CRBN/Hibit-tagged CRISPR BRD3 (unknown origin) expressed in HEK293 cells co-expressing LgBiT assessed as degradation of BRD3 by […] glo-max assay; assay type: cell-based
[34] = Effect on ZBTB21 level in human MV4-11 cells assessed as fold change at 100 nM measured after 4 hrs; assay type: functional
[35] = Cmax in female CD1 mouse at 10 mg/kg, po measured upto 24 hrs by LC-MS/MS analysis; assay type: ADME, organism-based; details: in vivo
[36] = molecular target: T3, Protein cereblon/Bromodomain-containing protein 2 (Homo sapiens); assay: PROTAC activity at CRBN/Hibit-tagged CRISPR BRD2 (unknown origin) expressed in HEK293 cells coexpressing LgBiT assessed as degradation of BRD2 measured after 10 to 14 hrs by […] glo-max assay; assay type: cell-based; details: time 10-14 hrs
[37] = molecular target: T2, Protein cereblon/Bromodomain-containing protein 4; assay: PROTAC activity at CRBN/Hibit-tagged CRISPR BRD4 (unknown origin) expressed in HEK293 cells co-expressing LgBiT assessed as degradation of BRD4 by […] glo-max assay; assay type: cell-based
[38] = Effect on BRD4 level in human MV4-11 cells assessed as fold change at 100 nM measured after 4 hrs; assay type: functional
[39] = Effect on FGL2 level in human MV4-11 cells assessed as fold change at 100 nM measured after 4 hrs; assay type: functional
HD-MB03 = assay: Cytotoxicity against human HD-MB03 cells assessed as reduction in cell viability incubated for 72 hrs by cell-titer glo assay; assay type: functional, cell-based; details: HD-MB03, 72 h
[40] = Effect on BRD2 level in human MV4-11 cells assessed as fold change at 100 nM measured after 4 hrs; assay type: functional
[41] = Effect on CCND3 level in human MV4-11 cells assessed as fold change at 100 nM measured after 4 hrs; assay type: functional
[42] = Effect on AURKA level in human MV4-11 cells assessed as fold change at 100 nM measured after 4 hrs; assay type: functional
[43] = molecular target: T4, Protein cereblon/Bromodomain-containing protein 3 (Homo sapiens); assay: PROTAC activity at CRBN/Hibit-tagged CRISPR BRD3 (unknown origin) expressed in HEK293 cells co-expressing LgBiT assessed as degradation of BRD3 by […] glo-max assay relative to control; assay type: cell-based
[44] = Downregulation of BRD4 protein level in human MV4-11 cells at 100 nM incubated for 4 hrs relative to control; assay type: functional
[45] = molecular target: T4, Protein cereblon/Bromodomain-containing protein 3 (Homo sapiens); assay: PROTAC activity at CRBN/Hibit-tagged CRISPR BRD3 (unknown origin) expressed in HEK293 cells co-expressing LgBiT assessed as degradation of BRD3 measured after 13 to 16 hrs by […] glo-max assay; assay type: cell-based; details: time 13-16 hrs
MV4-11 [46] = assay: Upregulation of ZBTB21 level in human MV4-11 cells at 100 nM incubated for 30 mins; assay type: functional, cell-based
MV4-11 [47] = assay: Upregulation of MIER1 level in human MV4-11 cells at 100 nM incubated for 30 mins; assay type: functional, cell-based

half-life [2]: 25.8 min
Emax [3]: 75.7%
DC50 [4]: 25 nM
solubility kinetic [5]: 24.4 µM (≈ 17.8 µg/mL)
half-life [6]: 2.4 min
Structure (SMILES): Cc1sc2c(c1C)C(c1ccc(Cl)cc1)=N[C@@H](CC(=O)NCCCCCNC(=O)COc1ccc(C3CCC(=O)NC3=O)cc1)c1nnc(C)n1-2 (stereo partly drawn)
AUC [1]: 298000
Activity (HEK293): Non-toxic

Activity [8]: Active
Activity [9]: > 90%
Activity [11]: > 95%
half-life [12]: 1070 min
Papp at 1 h [13]: 0.79 ×10⁻⁶ cm/s
Activity [16]: Active
Activity [24]: Active
Activity [27]: 0.204 fRLU/hr
AUC(0-t) at 24 h [30]: 3320 ng·h/mL
Activity [33]: Active
Emax [3]: 95.5%
Cmax [35]: 1160 ng/mL
DC50 [4]: 1.08 nM
Activity [36]: Active
Activity [37]: Active
Activity [43]: > 95%
solubility kinetic [5]: 10.5 µM (≈ 8.64 µg/mL)
Activity [45]: Active
half-life [6]: 9.6 min
Structure (SMILES): Cc1sc2c(c1C)C(c1ccc(Cl)cc1)=N[C@@H](CC(=O)N1CCC(CN3CCN(c4ccc5c(c4)C(=O)N(C4CCC(=O)NC4=O)C5=O)CC3)CC1)c1nnc(C)n1-2 (stereo partly drawn)
fold change (FC) [7]: -1.64
IC50 (MV4-11 [10]): 0.82 nM
fold change (FC) [14]: -1.29
fold change (FC) [15]: 1.91
fold change (FC) [17]: -1.73
fold change (FC) [18]: -1.24
Activity (HEK293): Non-toxic
fold change (FC) [19]: -0.88
Activity [20]: Active
fold change (FC) [21]: -1.07
fold change (FC) [22]: -1.17
fold change (FC) [23]: -4.09
fold change (FC) [25]: -1.1
Activity [26]: 90%
fold change (FC) [28]: -0.79
Activity [29]: 90%
fold change (FC) [31]: -1.26
fold change (FC) [32]: -1.1
fold change (FC) [34]: -0.06
fold change (FC) [38]: -4.11
fold change (FC) [39]: -1
IC50 (HD-MB03): 9.29 nM
fold change (FC) [40]: -3.3
fold change (FC) [41]: -0.9
fold change (FC) [42]: -0.95
Activity [44]: 90%

Activity [8]: Active
Activity [9]: > 90%
Activity [11]: > 95%
half-life [12]: 822 min
Papp at 1 h [13]: 1.2 ×10⁻⁶ cm/s
Activity [16]: Active
Activity [24]: Active
Activity [27]: 0.395 fRLU/hr
AUC(0-t) at 24 h [30]: 181 ng·h/mL
Activity [33]: Active
Emax [3]: 94%
Cmax [35]: 70 ng/mL
DC50 [4]: 0.25 nM
Activity [36]: Active
Activity [37]: Active
Activity [43]: > 95%
solubility kinetic [5]: 14.8 µM (≈ 12 µg/mL)
Activity [45]: Active
Structure (SMILES): Cc1sc2c(c1C)C(c1ccc(Cl)cc1)=N[C@@H](CC(=O)N1CCC(CN3CCN(c4ccc5c(c4)oc(=O)n5C4CCC(=O)NC4=O)CC3)CC1)c1nnc(C)n1-2 (stereo partly drawn)
fold change (FC) [7]: -1.74
IC50 (MV4-11 [10]): 0.04 nM
fold change (FC) [14]: -2.38
fold change (FC) [15]: 1.94
Activity (MV4-11 [46]): Active
fold change (FC) [17]: -1.64
fold change (FC) [18]: -1.17
Activity (HEK293): Non-toxic
fold change (FC) [19]: -0.92
Activity [20]: Active
Activity (MV4-11 [47]): Active
fold change (FC) [21]: -1.14
fold change (FC) [22]: -1.14
fold change (FC) [23]: -4.05
fold change (FC) [25]: -1.09
Activity [26]: 90%
fold change (FC) [28]: -0.8
Activity [29]: 90%
fold change (FC) [31]: -0.64
fold change (FC) [32]: -1.13
fold change (FC) [34]: -1.77
fold change (FC) [38]: -3.75
fold change (FC) [39]: -0.81
IC50 (HD-MB03): 0.38 nM
fold change (FC) [40]: -3.2
fold change (FC) [41]: -1.03
fold change (FC) [42]: -0.94
Activity [44]: 90%
